As a reminder, the IC50 is the concentration at which inhibition is half-maximal.

Calls of active or inactive are those of the source.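 Rule for the calls: active = maximal inhibition of the USP30 enzyme reaching 30% or more across the dose series; inactive = the rest.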 Where only a bound is given, the exact number is not on record here.

In this test the target is Ubiquitin carboxyl-terminal hydrolase 30 (Homo sapiens) (UniProt Q70CQ3). The test is described as follows: inhibitors of ubiquitin-specific protease 30 deubiquitylating enzyme, concentration dependence, in vitro biochemical, validation of primary hits (AID 1645865). As to conditions: purified USP30, Ub-rhodamine cleavage, fluorescence, 2 h.
Ubiquitin carboxyl-terminal hydrolase 30 (Homo sapiens), sequence (Q70CQ3 whole entry, looked up): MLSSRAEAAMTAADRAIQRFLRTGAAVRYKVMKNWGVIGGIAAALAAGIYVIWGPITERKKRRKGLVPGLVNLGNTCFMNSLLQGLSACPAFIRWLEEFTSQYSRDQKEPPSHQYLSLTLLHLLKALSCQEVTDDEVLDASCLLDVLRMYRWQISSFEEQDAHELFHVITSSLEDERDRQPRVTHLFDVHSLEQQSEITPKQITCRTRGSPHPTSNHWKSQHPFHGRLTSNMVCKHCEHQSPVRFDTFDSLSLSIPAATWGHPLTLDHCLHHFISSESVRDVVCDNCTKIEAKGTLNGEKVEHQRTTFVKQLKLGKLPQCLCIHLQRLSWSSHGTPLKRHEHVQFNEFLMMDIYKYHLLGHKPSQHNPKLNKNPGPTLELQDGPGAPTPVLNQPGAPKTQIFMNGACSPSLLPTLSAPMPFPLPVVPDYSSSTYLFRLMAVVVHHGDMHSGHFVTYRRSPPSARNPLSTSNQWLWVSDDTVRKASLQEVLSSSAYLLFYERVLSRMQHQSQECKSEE
With `Cc1cc(-c2nnc(SCC(=O)Nc3ccc(Br)c(C)c3)n2N)n[nH]1`, the IC50 is 16.1 µM.
In the case of `CC(C)(C)c1cc(CCC(=O)Nc2c3c(nc4c2CCC4)CCCC3)cc(C(C)(C)C)c1O`, the IC50 was > 50 µM (inactive).
The result for `COc1cccc2cccc(O)c12` reads > 50 µM (inactive); that for `COc1ccccc1OCC(=O)Nc1ccc2c(c1)CCC(=O)N2Cc1ccccc1`, > 50 µM (inactive); that for `Cc1cccc2sc(NC(=O)c3nnn(-c4ccc(F)cc4)n3)nc12`, > 50 µM (inactive).
As for `CS(=O)(=O)n1nc(NCc2ccc(F)cc2)nc1NCc1ccc(F)cc1`, the IC50 was > 50 µM (inactive).
On to `CCC(C)NC(=O)Cn1c(=O)n(-c2ccccc2)c(=O)c2ccc(C(=O)NCc3ccco3)cc21` (stereo unspecified), for which the IC50 was 28.5 µM.
Regarding `Cc1cccc(C)c1NC(=O)Cn1c(=O)n(CCCCC(=O)NCc2ccc3c(c2)OCO3)c(=O)c2ccccc21`, the IC50 is 1.5 µM.
As for `O=C(Cc1cccnc1)Nc1ccc(N2CCN(C3CCCCC3)C2=O)nc1`, the IC50 was > 50 µM (inactive).
Regarding `O=C(NC1(O)C(=O)c2ccccc2C1=O)c1ccc(-c2csnn2)cc1`, the IC50 is 32.1 µM.
The value for `COc1ccc(CNC(=O)CN2C(=O)CC(c3ccccc3)=Nc3ccccc32)cc1` was 14.6 µM; that for `Cc1ccccc1C(=O)OCCN1C(=O)c2cccc3c(N4CCOCC4)ccc(c23)C1=O` was > 50 µM (inactive); that for `Cc1cc(-c2cnc(N(C)C)nc2-c2ccc(CNC(=O)Cc3ccc(F)cc3)cc2)on1` was > 50 µM (inactive).
Turning to `O=C(Cn1c(CSc2ccccc2)nc2ccccc21)Nc1ccccc1F`, the IC50 was > 50 µM (inactive).
The value for `Cc1ccc(-n2c(-c3ccccc3)cn3c4c(=O)[nH]c(=O)n(C)c4nc23)cc1Cl` was 0.222 µM; that for `O=C(Nc1ccc(F)cc1F)NC1CCN(c2ccccc2)C1=O` (stereo unspecified) was 25.8 µM; that for `COCCNC(=O)Cn1c(=O)n(Cc2ccccc2)c(=O)c2c3c(sc21)CCC3` was 31.7 µM.
Consider `COc1ccc(C2CC(=O)Nc3n[nH]c(-c4ccccc4)c32)cc1OC` (stereo unspecified), for which the half-inhibitory concentration (IC50) was 18.8 µM.
For `CCc1cccc(CC)c1NC(=O)COC(=O)c1cc2cccc(OC)c2oc1=O`, the IC50 was 39.5 µM.
For the molecule `CNS(=O)(=O)c1ccc(CNC(=O)c2cc(-c3ccc(C)cc3)no2)cc1`, the IC50 was 18 µM.
`O=C(NCCc1ccco1)c1ccc(N2CCOc3ccccc32)s1`: the IC50 is 27.4 µM.
Turning to `Cc1ccc(NC(=O)c2c3c(nc4ccccc24)CCCCC3)c(C)c1`, the IC50 is > 50 µM (inactive).
The result for `Cn1c(-c2nnc(SCC(=O)NCCc3ccccc3)o2)cc2ccccc21` reads 7 µM; that for `CCCc1nc2sc3c(NCc4ccco4)ncnc3c2c2c1CCC2`, > 50 µM (inactive); that for `Cc1noc(C)c1COc1cccc(C(=O)Nc2cc(Cl)ccc2-n2cncn2)c1`, > 50 µM (inactive).
In the case of `COc1cc(-c2cc(C(=O)Nc3cc(C)[nH]n3)c3ccccc3n2)cc(OC)c1OC`, the IC50 was 32.7 µM.
On to `Cc1c(-c2nn3c(-c4ccco4)nnc3s2)cccc1[N+](=O)[O-]`, for which the IC50 was 2.6 µM.
`O=C(COc1ccc2c(c1)CCC2)Nc1ccc2c(c1)CCC2`: the IC50 was 26.3 µM.
`CCn1c(COc2cccc(C(F)(F)F)c2)nnc1SCc1ccc(Cl)cc1`: the IC50 is 15.9 µM.
Consider `Clc1ccccc1CSc1nnc(C2CCCCC2)n1Cc1ccccc1`, for which the IC50 was 21.5 µM.
Regarding `Cc1cc(=O)n(C)c2c(O)c3c(cc12)c(C)cc(=O)n3C`, the IC50 is > 50 µM (inactive).
As to `NS(=O)(=O)c1ccc(Cl)c(C(=O)OCc2csc(Nc3ccccc3)n2)c1`, the IC50 was > 50 µM (inactive).
Consider `N#Cc1cccc(S(=O)(=O)N2CCc3nc4ccccc4n3CC2)c1`, for which the IC50 was 20.3 µM.
Consider `CC(C)(C)c1cc(C[C@@H]2C[C@H](NC(=O)N3CCOCC3)C2(C)C)no1`, for which the IC50 was 22.2 µM.
With `Cc1nc(C(=O)NC2(O)C(=O)c3ccccc3C2=O)cs1`, the IC50 was 23.1 µM.
As to `O=C(NCCn1ccc2ccccc21)c1cc2ccccc2oc1=O`, the IC50 is 40.9 µM.
The value for `O=C(CCCC(=O)c1ccccc1)Nc1ccc(F)cc1` was 31.4 µM; that for `COC(=O)c1cc2c(ccn2C)n1CC(=O)NC1CC1` was > 50 µM (inactive).
The value for `COc1cccc(-c2nc(C(N)=O)c3[nH]c(=O)n(-c4cccc(Cl)c4)c3n2)c1OC` was > 50 µM (inactive); that for `O=C(Cc1ccc(Cl)c(Cl)c1)OCC(=O)c1c[nH]c2ccccc12` was > 50 µM (inactive).
For the molecule `CCn1cnc2c1c(=O)n(CC(=O)NCc1ccccc1Cl)c(=O)n2Cc1ccccc1`, the IC50 was > 50 µM (inactive).
The value for `c1coc(CNc2nc3ccccc3n3nnnc23)c1` was > 50 µM (inactive); that for `COc1ccc(OC)c(NC(=O)Cn2c(=O)n(CC3CCC(C(=O)NCCc4ccccc4)CC3)c(=O)c3ccccc32)c1` (stereo unspecified) was 1.77 µM.
Regarding `Cc1csc2ncc(C(=O)N3CCN(c4ccccc4F)CC3)c(=O)n12`, the IC50 is > 50 µM (inactive).
As to `Cc1ccc2nc(CNc3ccc(F)cc3C)cc(=O)n2c1`, the IC50 was > 50 µM (inactive).
Consider `Cc1cc(=O)c2c(O)oc(O)c3c(O)cc(=O)c1c32`, for which the IC50 was > 50 µM (inactive).
Take `O=S(=O)(O)c1cc2cc3ccccc3cc2[nH]1`: the IC50 is > 50 µM (inactive).
On to `Cc1nn(C)c2c1[C@@H](c1ccc(F)c(Br)c1)[C@H](NC(=O)c1ccccc1)C(=O)N2`, for which the IC50 is > 50 µM (inactive).
With `COC(=O)c1sccc1NC(=O)COc1ccsc1C(=O)OC`, the IC50 is 27.9 µM.
Take `Cc1ccc2c(c1C)NC(=O)[C@]21[C@@H]2C(=O)N(c3cccc(Cl)c3)C(=O)[C@@H]2[C@@H]2CCCN21`: the IC50 is > 50 µM (inactive).
In the case of `CCCn1c(=O)c(-c2ccc(C(=O)NCc3ccc(OC)cc3)cc2)nc2cccnc21`, the IC50 is 1.84 µM.
On to `CCC(C)c1ccc(-c2csc(Cn3c(CN4CCN(C)CC4)nc4ccccc4c3=O)n2)cc1` (stereo unspecified), for which the IC50 is 1.63 µM.
`CC1(C)C[C@@H](O)[C@]2(C)CC[C@]3(C)C(=CCC4[C@@]5(C)CC[C@H](O)[C@](C)(CO)[C@@H]5CC[C@]43C)[C@@H]2C1` (stereo partly specified): the IC50 is 3.18 µM.
With `O=C1c2ccccc2NC2(C(=O)Nc3ccc(Br)cc32)N1c1ccccc1` (stereo unspecified), the IC50 was > 50 µM (inactive).
Consider `O=C(CCc1c[nH]c2ccccc12)Nc1ccc(N2CCOCC2)cc1`, for which the IC50 is 25.1 µM.
As for `Cc1nn(-c2ccc([N+](=O)[O-])cc2)c(C)c1-c1nc2ccccc2[nH]1`, the IC50 is 23.6 µM.
For `COC(=O)c1ccc2c(=O)n(CCCCCC(=O)NCc3cccc(Cl)c3)c(=O)[nH]c2c1`, the half-maximal inhibitory concentration (IC50) is 1.69 µM.
Take `COc1ccc(-n2c(SCC(=O)c3ccc(F)cc3)nnc2-c2cccnc2)cc1`: the IC50 was 21.9 µM.
Take `COc1cccc2c1NC(=O)C21CCN(C(=O)Nc2cccc(C)c2)CC1`: the IC50 is 16.3 µM.
`CC1CCc2sc(NC(=O)c3ccccc3Oc3ccccc3)c(C(N)=O)c2C1` (stereo unspecified): the IC50 is 3.28 µM.
`Cc1cc(O)c2c3c(c(O)c4c(c13)O[C@@H](C)C4(C)C)C(=O)C2=O`: the IC50 is 35.1 µM.
`Cc1ccc(NC(=O)c2sc3ncn(CC(=O)N4CCN(c5ccccn5)CC4)c(=O)c3c2C)c(Br)c1`: the IC50 was 8.36 µM.
Consider `O=C(O)c1ccccc1C(=O)Nc1ccc(SC(C(=O)Nc2ccccc2)c2ccccc2)cc1` (stereo unspecified), for which the IC50 was > 50 µM (inactive).
For the molecule `Cc1ccc(NC(=O)c2ccc3nn(CC(=O)Nc4ccc(F)cc4F)c(=O)n3c2)cc1`, the half-maximal inhibitory concentration (IC50) is 2.43 µM.
Consider `Cc1ccc(NC(=O)CSc2nc3c(cc2C#N)C(=O)CCC3)cc1`, for which the IC50 was 31.4 µM.
Turning to `Cc1cc(O)cc2cc3c(c(O)c12)C(=O)CCC3O` (stereo unspecified), the IC50 was > 50 µM (inactive).
The result for `COc1ccc(CNC(=O)Nc2cccc3ccccc23)cc1` reads 3.81 µM; that for `COc1ccc(C(=O)NCC(c2ccc3c(c2)CCCN3C)N2CCCC2)cc1` (stereo unspecified), > 50 µM (inactive).
For the molecule `Cc1cc(C(=O)Nc2cc(C)n(Cc3ccc(Cl)cc3)n2)no1`, the IC50 is > 50 µM (inactive).
The result for `CC(C)CCCCCCCCCCC(=O)N(C)[C@H](CO)C(=O)N[C@H](C)C(=O)NCC(=O)N(C)C1C(=O)N[C@@H](C)C(=O)NC(C(=O)O)Cc2ccc(O)c(c2)-c2cc1ccc2O` (stereo partly specified) reads > 50 µM (inactive); that for `c1csc(CCN2CCc3nc4cccnc4cc3C2)c1`, > 50 µM (inactive).
The result for `COc1cc(/C=C/C(=O)OCC(=O)Nc2ccc([N+](=O)[O-])cc2OC)ccc1O` reads 28 µM; that for `O=C(NCc1ccncc1)C1CCN(c2cncnc2N2CCCCC2)CC1`, > 50 µM (inactive); that for `Cc1noc(-c2cccn(Cc3cccc(C(F)(F)F)c3)c2=O)n1`, > 50 µM (inactive).
For `Cc1ccc2nc(CCc3ccc(NS(=O)(=O)c4cccc(Cl)c4C)cc3)[nH]c2c1`, the IC50 is 44.8 µM.
For the molecule `COc1ccccc1NC(=O)Nc1ccc(NC(=O)c2ccccc2O)cc1`, the half-inhibitory concentration (IC50) is 29 µM.
The result for `O=C(OCCCN1C(=O)c2cccc3c(N4CCCCC4)ccc(c23)C1=O)c1ccccn1` reads > 50 µM (inactive); that for `COCCCn1c(SCC(=O)Nc2ccccc2C(=O)OC)nc2ccccc2c1=O`, 25.7 µM.
Consider `COC(=O)c1cc(C#N)c(NCc2ccccc2)nc1C`, for which the half-maximal inhibitory concentration (IC50) is 10.1 µM.
In the case of `O=C(/C=C/C=C/C=C/C1CCCCC1)NC1=C[C@@](O)(/C=C/C=C/C=C/C(=O)NC2=C(O)CCC2=O)[C@@H]2O[C@@H]2C1=O`, the IC50 is > 50 µM (inactive).
For `O=C(O)C1CCN(Cc2c(-c3ccco3)nc3ccc(Cl)cn23)CC1`, the IC50 was > 50 µM (inactive).
For the molecule `O=c1ccc(-c2noc(Cc3cccc(Cl)c3)n2)c[nH]1`, the IC50 was > 50 µM (inactive).
The value for `Cc1sc(NC(=O)CN2CCc3ccccc3C2)nc1-c1ccc2c(c1)CCN2C(=O)C1CCCCC1` was > 50 µM (inactive); that for `CCCn1c(=O)n(CC(=O)c2ccccc2F)c2c(C(N)=O)nc(-c3ccco3)nc21` was > 50 µM (inactive).
For `CCN1CCN(C(=O)CCCN(c2ccccc2)S(C)(=O)=O)CC1`, the IC50 is > 50 µM (inactive).
For the molecule `CCC[C@H]1O[C@@H]2CC(=O)O[C@@H]2C2=C1C(=O)c1c(O)cccc1C2=O`, the IC50 was > 50 µM (inactive).

For the origin of these results see PubChem BioAssay AID1645865 (Buhrlage Lab, Dana-Farber Cancer Institute and Novartis …, 2021).
